Experimental data reported in PubChem BioAssay AID330 (DTP/NCI, 2004).
“And” between values parts separate entries of the source, which are not always exact repeats. Identical values can stand only once. Toxic doses and inconclusive results are not listed. How the source made its calls: active means survival T/C of 150% or more; inactive means T/C below 125% in these data.

Test system: P388 leukemia ip, CD2F1 mice, survival T/C
Test: NCI In Vivo Anticancer Drug Screen. Data for tumor model P388 Leukemia (intraperitoneal) in CD2F1 (CDF1) mice
Details: endpoint: median survival time, higher = longer survival
In short: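 Mice carrying the transplanted tumor received test compound or vehicle. Survival was recorded in each group, and the value is the treated-group measurement divided by that of the vehicle-treated control group.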

[1] = dose: 50.0 mg/kg/injection, schedule: Q01DX005 (ip), vehicle: Klucel (hydroxypropylcellulose) (HPC)
[2] = dose: 100.0 mg/kg/injection, schedule: Q01DX005 (ip), vehicle: Klucel (hydroxypropylcellulose) (HPC)
[3] = dose: 200.0 mg/kg/injection, schedule: Q01DX005 (ip), vehicle: Klucel (hydroxypropylcellulose) (HPC)

Measured: T/C

CC(=O)OC/C=C(C)/C=C/C=C(C)/C=C/C1=C(C)CCCC1(C)C
inactive: dose: 200.0 mg/kg/injection, schedule: Q01DX005 (ip), vehicle: saline with Tween-80 95 % of control | dose: 400.0 mg/kg/injection, schedule: Q01DX005 (ip), vehicle: saline with Tween-80 97 % of control | dose: 800.0 mg/kg/injection, schedule: Q01DX005 (ip), vehicle: saline with Tween-80 97 % of control | dose: 1600.0 mg/kg/injection, schedule: Q01DX005 (ip), vehicle: saline with Tween-80 101 % of control

N#C/C(=C1/NC(=O)c2ccccc21)c1nc2ccccc2n1CCO
inactive: dose: 6.25 mg/kg/injection, schedule: Q01DX009 (ip), vehicle: saline with Tween-80 91 % of control | dose: 12.5 mg/kg/injection, schedule: Q01DX009 (ip), vehicle: saline with Tween-80 92 % of control | dose: 25.0 mg/kg/injection, schedule: Q01DX009 (ip), vehicle: saline with Tween-80 89 % of control | dose: 200.0 mg/kg/injection, schedule: Q01DX009 (ip), vehicle: saline with Tween-80 89 % of control

NC(N)=NN=C(C1CC1)C1CC1
inactive: [1] 100 % of control | [2] 98 % of control | [3] 103 % of control

N#Cc1ccc(=O)[nH]c1O
inactive: dose: 50.0 mg/kg/injection, schedule: Q01DX009 (ip), vehicle: saline with Tween-80 99 % of control | dose: 100.0 mg/kg/injection, schedule: Q01DX009 (ip), vehicle: saline with Tween-80 100 % of control

Nc1ncnc2c1c1c(=O)[nH]cnc1n2C1OC(CO)C(O)C1O (stereo not drawn)
inactive: dose: 3.13 mg/kg/injection, schedule: Q01DX009 (ip), vehicle: water 107 % of control | dose: 6.25 mg/kg/injection, schedule: Q01DX009 (ip), vehicle: water 113 % of control | dose: 12.5 mg/kg/injection, schedule: Q01DX009 (ip), vehicle: water 114 % of control | dose: 50.0 mg/kg/injection, schedule: Q01DX009 (ip), vehicle: water 116 % of control

Nc1nc(N)nc(N(CCO)CCO)n1
inactive: [1] 111 % of control | [2] 102 % of control | [3] 106 % of control

c1ccc(ON=C2c3ccccc3-c3ccccc32)cc1
inactive: dose: 75.0 mg/kg/injection, schedule: Q04DX003 (ip), vehicle: saline 113 % of control | dose: 125.0 mg/kg/injection, schedule: Q04DX003 (ip), vehicle: saline 109 % of control | dose: 250.0 mg/kg/injection, schedule: Q04DX003 (ip), vehicle: saline 104 % of control

O=C(OC1CC2CCC(C1)S2)c1ccco1 (stereo not drawn)
inactive: dose: 50.0 mg/kg/injection, schedule: Q04DX002 (ip), vehicle: saline with Tween-80 109 % of control | dose: 100.0 mg/kg/injection, schedule: Q04DX002 (ip), vehicle: saline with Tween-80 109 % of control | dose: 200.0 mg/kg/injection, schedule: Q04DX002 (ip), vehicle: saline with Tween-80 110 % of control

N[C@H](C(=O)O)[C@H]1ON=C(Cl)[C@@H]1O
active: dose: 4.0 mg/kg/injection, schedule: Q01DX009 (ip), vehicle: saline 153 % of control | dose: 8.0 mg/kg/injection, schedule: Q01DX009 (ip), vehicle: saline 153 % of control | dose: 16.0 mg/kg/injection, schedule: Q01DX009 (ip), vehicle: saline 198 % of control
inactive: dose: 0.13 mg/kg/injection, schedule: Q01DX009 (ip), vehicle: saline 104 % of control and 98 % of control | dose: 0.25 mg/kg/injection, schedule: Q01DX009 (ip), vehicle: saline 106 % of control and 113 % of control | dose: 0.5 mg/kg/injection, schedule: Q01DX009 (ip), vehicle: saline 112 % of control | dose: 1.0 mg/kg/injection, schedule: Q01DX009 (ip), vehicle: saline 117 % of control and 121 % of control | dose: 2.0 mg/kg/injection, schedule: Q01DX009 (ip), vehicle: saline 124 % of control

Nc1cc(=O)[nH]c2ncnn12
inactive: dose: 25.0 mg/kg/injection, schedule: Q01DX009 (ip), vehicle: saline 103 % of control | dose: 50.0 mg/kg/injection, schedule: Q01DX009 (ip), vehicle: saline 109 % of control | dose: 100.0 mg/kg/injection, schedule: Q01DX009 (ip), vehicle: saline 102 % of control | dose: 200.0 mg/kg/injection, schedule: Q01DX009 (ip), vehicle: saline 99 % of control
